In patent publication US12427192B2, “Water soluble adjuvant and composition containing same” (Sumitomo Pharma Co., Ltd., priority 2019, dated 2025):

Legend:
[1] = tested on: HLA-A*02:01 transgenic mouse; test: Test 15: in vivo adjuvant activity, cocktail vaccine j (hydrogel formulation), IFNγ ELISPOT; details: added to cocktail vaccine j (hydrogel formulation); 0.4 nmol per body, twice; FIG. 17 and 18
Description: Evaluation of In Vivo Adjuvant Activity in HLA-A*02:01 Transgenic Mouse
The in vivo adjuvant activity of the compound of Example 1 was evaluated in the following procedure. To a vaccine (hydrogel formulation) comprising Compound of formula 4 prepared in Reference example 8 and Peptide SEQ ID No. 3 prepared in Reference example 3 (hereinafter, referred to as “cocktail vaccine j”) was added the compound prepared in Example 1 to prepare a vaccine. The vaccine was administered to a HLA-A*02:01 transgenic mouse, and the adjuvant activity of the vaccine was evaluated by the method of testing antigen-specific CTL induction.
For example, the above hydrogel formulation was prepared as follows. Compound of formula 4, Peptide SEQ ID No. 3, and polyoxyethylene(196)polyoxypropylene(67) glycol were mixed with pH 2.5 buffer (10 mM tartaric acid) to adjust each concentration to 1.5 mg/mL, 1.125 mg/mL, and 200 mg/mL, respectively. The mixture was […] to give a hydrogel formulation, cocktail vaccine j. The amount of the preparation was adjusted as appropriate.
Cocktail vaccine j was injected to mice intradermally at the tail base area in an amount for administering 300 μg of Compound of formula 4 per body and 225 μg of Peptide SEQ ID No. 3 per body. […] Then, after removal of the supernatant from the wells, stained spots on the ELISPOT plate were counted.

[2] = tested on: HLA-A*02:01/HLA-DRB1*01:01 transgenic mouse; test: Test 19: in vivo adjuvant activity (CTL and helper T-cell induction), cocktail vaccine n, IFNγ ELISPOT; details: added to cocktail vaccine n, 0.04 nmol or 0.4 nmol per body, twice
Description: Evaluation of In Vivo Adjuvant Activity in HLA-A*02:01/HLA-DRB1*01:01 Transgenic Mouse
The in vivo adjuvant activity of the compound of Example 1 was evaluated in the following procedure. To a cocktail vaccine comprising Peptide SEQ ID No. 1 prepared in Reference example 1 and Peptide SEQ ID No. 17 prepared in Reference example 20 with a preliminarily-emulsified composition (hereinafter, referred to as “cocktail vaccine n”) was added the compound prepared in Example 1 to prepare each vaccine. The vaccine was administered to a HLA-A*02:01/HLA-DRB1*01:01 transgenic mouse (C57BL/6CrHLA-A2.1DR1), and the adjuvant activity of each vaccine was evaluated by the method of testing antigen-specific CTL and antigen-specific helper T-cell induction. Peptide SEQ ID No. 17 is a helper peptide derived from WT1 protein.
Specifically, Peptide SEQ ID No. 1 and Peptide SEQ ID No. 17 were dissolved in DMSO, and then diluted with water for injection to concentrations of Peptide SEQ ID No. 1 of 2 mg/mL and Peptide SEQ ID No. 17 of 4 mg/mL. The prepared peptide dilution was mixed with an equal volume of the preliminary emulsified composition prepared like Test 4 to give an emulsified product, cocktail vaccine n. […] Then, after removal of the supernatant from the wells, stained spots on the ELISPOT plate were counted.

CCCCCNc1nc(N)nc(C)c1Cc1ccc(CN(C)CCOCCOCCOCCOCCO)cc1OC [Example 1, 1-(4-{[2-amino-4-methyl-6-(pentylamino)pyrimidin-5-yl]methyl}-3-methoxyphenyl)-2-methyl-5,8,11,14-tetraoxa-2-azahexadecan-16-ol·trifluoroacetate]
more: CTL counts responsive to Peptide SEQ ID No. 1 or SEQ ID No. 4 compared with adding no compound [1] | CTL counts responsive to Peptide SEQ ID No. 1 compared with adding no compound ([2]; FIG. 23) | helper T-cell counts responsive to Peptide SEQ ID No. 17 compared with adding no compound ([2]; FIG. 24)
